Data: US20070026090A1, “Treatment and prevention of inflammatory disease and mitochondrial dysfunction with high dose selenium” (priority 2003, published 2007)
“Also recorded” adds a separate entry of the source.

Legend:
[1] = tested on: Electron Transport Chain (complex 1); test: Oxygen consumption of fresh colon tissue with rotenone; details: healthy rat colon tissue; 20 μg/ml rotenone (FIG. 4)
Description: Mitochondrial respiration activity in colon tissue: Mitochondrial respiration was measured by direct assessment of oxygen consumption of the tissue. Briefly, colons were removed, chilled on ice, and washed extensively with cold PBS. Colon tissue samples (5-10 mm in width, 100 mg) were incubated at ambient temperature in PBS supplemented with 5 mM glucose. Oxygen consumption was measured polarographically using a computerized Clark-type oxygen electrode. The addition of the Electron Transport Chain (complex 1) inhibitor rotenone was used to determine whether the majority of oxygen consumption measured in the colon samples was mitochondrial respiration-dependent.

[2] = mice, at 60 and 90 days; as selenocysteine; cited from earlier work
AOM-induced colon cancer = details: up to 5.4 ppm in water; cited from earlier work
[3] = Selenium incorporation into colon tissue (ICP-AES); type: in vivo, rat
Description: Measurement of selenium incorporation into colon tissue: inductively coupled plasma (ICP) method: Colon tissue samples were prepared for analysis of selenium content by microwave-assisted digestion using an MLS 1200 mega microwave digestion unit [Milestone Sorisole (BG), Italy]. At the conclusion of the digestion period the vessels were allowed to cool down to room temperature and were uncapped. Liquid residues were taken up in water, transferred into 25-ml calibrated flasks and equilibrated to 25 ml volume with water. Analyses were conducted on portions of these solutions, versus multi-element selenium standards from Merck (Merck and Co, EMBD Biosciences, San Diego Calif.) in the same solvent. Selenium (Se) was determined by ICP-atomic emission spectrometry (AES) at 196.090 nm. An ICP-AES system, model “Spectroflame Modula E” from Spectro, Kleve, Germany was used with a cross-flow nebulizer. The power level was 1.2 kW, coolant flow 15 l/min, auxiliary flow 0.5 l/min and nebulizer flow 0.5 l/min. Observation height was 10 mm above the coil.

MnSOD = MnSOD transcription and expression (RTPCR, Western blot); type: cell-based, murine; details: LPS + INFγ activated; 24 hours; range 0.5-5 μM (FIG. 11)
Description: (§1) Cell culture: Murine J774.2 macrophages (kindly provided by Prof. Dov Zipori from the Weizmann Institute of Science) were grown in RPMI medium supplemented with 10% (w/v) fetal calf serum, penicillin (100 U/ml), streptomycin (100 μg/ml) and 1× glutamine at 37° C. in a humidified atmosphere consisting of 95% air and 5% CO2. Experiments were performed on cells at 60% confluence.
(§2) Western blots (Sp1, MnSOD, UCP2): Cells were grown in six-well tissue culture plates, treated with selenium for 72 h and activated with LPS and IFN-γ for 24 h. The wells were washed with PBS, scraped and centrifuged
(5 min. 2000 RPM), and lysed by addition of boiling hot lysis buffer (1% SDS, 1 mM sodium ortho-vanadate, 10 mM Tris pH 7.4) to the pellets. Protein content was measured (BIO RAD protein assay kit) and equalized. Sample buffer (containg SDS) was added and the samples were boiled. The samples were subjected to SDS-PAGE followed by western blot analysis. Separated proteins were transferred electrophoretically from the gel to a nitrocellulose membrane (Amersham International plc, Buckinghamshire, ENGLAND). The membrane was blocked in TBS (0.15 M NaCl/10 mM Tris/HCl, pH7.4) containing 5% (v/v) skimmed milk (Blotto), then incubated over night with primary antibodies at RT (diluted 1/2000 in blotto). After being washed six times in TBST [TBS containing 0.05% (v/v) Tween 20], the membrane was incubated for 2 h at room temperature with secondary antibody (diluted 1/5000 in blotto). Immunoreactive bands were detected with ECL western blotting detection reagents (Amersham Pharmacia Biotech, Buckingammshire England) and developed on film (Fuji super RX, Dusseldorf, Germany). […]
Right (antisense) 5′[…]-3′ (SEQ ID NO: 6) corresponding to nucleotides 622 to 640 of mouse mRNA region (GenBank Accession No. NM 013671). […] Actual PCR product was approximately 570 bp, measured on 1.25% agarose gel in TAE containing ethidium bromide.
(§3) PCR was performed with 28 cycles (25 cycles for GAPDH) of 30 seconds at 96° C., 30 seconds at 58° C. and 1 min at 72° C. RTPCR products were analyzed on 1.3% (w/v) agarose gels.

[4] = tested on: glutathione peroxidase (GPx); test: GPx activity in macrophage cell extract; type: cell-based, murine; details: 24 h; range 0.5-30 μM (FIG. 8B)
Description: as §1
GPx activity: GPx activity was determined by following the rate of NADPH oxidation at 340 nm in the presence of the substrates: 3 mM glutathione (GSH), 1.2 U glutathione reductase (GR) and 1.5% H2O2, using a microfluorometer plate reader (GENios, Tecan, Austria). The reaction contained 500 μl Tris reaction buffer (100 mM Tris Hcl, 300 mM Kcl, 5 mM EDTA, 1 mM NaN3, pH 7.0), substrates and 100 μl cell extract. Macrophages were treated with selenium for 24 h. Wells were washed twice with PBS, cells permeabilized, and scraped using 200 μl 0.2% Triton X-100. The reaction was recorded every minute for 25 minutes. Slopes were calculated and the results were adjusted according to the protein amount calculated with the Bradford reagent.

[5] = tested on: myeloperoxidase (MPO) activity; test: Tissue inflammation: myeloperoxidase activity in colon tissue; type: in vivo, rat; details: 24 h after TNBS; 16 ppm sodium selenite in drinking water, three weeks (FIG. 3 column D)
Description: Tissue inflammation-Myeloperoxidase activity: Colonic tissue samples (approximately 100-120 mg) were collected 4 cm proximal to the anus. Each tissue sample was homogenized in a solution containing 0.5% hexa-decyl-trimethyl-ammonium bromide (HTAB) (Sigma-Aldrich Corp, St. Louis, Mo.) buffer (0.5% HTAB in 50 mM phosphate buffer, pH 6.0). Tissue samples were minced in a test tube containing 1 ml of HTAB buffer on ice and homogenized with a Polytron tissue homogenizer (Brinkmann Instruments, Inc, Westbury N.Y., USA). The pooled homogenates and washes were sonicated in water for 20 seconds. After three cycles of freeze-thawing, the sonicated samples were centrifuged in cold for 15 min. at 40,000×g. Myeloperoxidase activity (MPO) was assayed in the supernatant as described by Krawisz (Krawisz et al., 1984) after addition of O-dianizidine-HCl (Sigma-Aldrich Corp, St Louis, Mo.) and 0.15% (v/v) H2O2 as a substrate for the MPO. The rate of change in absorbance was measured spectrophotometrically at 460 nm, and is expressed as the amount of enzyme necessary to produce a change in absorbance of 1.0 unit per minute (1 unit) per gram wet weight tissue.

[6] = mice and rats; up to 0.8 mg/kg body weight selenium; cited from earlier work
[7] = Cell viability (PI exclusion, flow cytometry); type: cell-based, murine; details: mouse, 10 μM during or after activation (FIGS. 14A, 14B); read-out: decrease in cell viability, activated and inactivated cells
Description: Experiments were performed on cells at 60% confluence.
Determination of cell viability: Cell-membrane integrity was detected by flow cytometer (FACSort, Becton Dickenson and Co., San Jose, Calif. USA) as a measurement of cell viability. For this assay, the nonpermeant DNA-intercalating dye propidium iodide (PI), which is excluded by viable cells, was used. Fluorescence settings were excitation at 488 nm and emission at 575 nm. Data were collected from at least 10,000 cells.

UCP2 = UCP2 transcription and expression (RTPCR, Western blot); type: cell-based, murine
Description: as §1, §2
(5 min. 2000 RPM), and lysed by addition of boiling hot lysis buffer (1% SDS, 1 mM sodium ortho-vanadate, 10 mM Tris pH 7.4) to the pellets. Protein content was measured (BIO RAD protein assay kit) and equalized. Sample buffer (containg SDS) was added and the samples were boiled. The samples were subjected to SDS-PAGE followed by western blot analysis. Separated proteins were transferred electrophoretically from the gel to a nitrocellulose membrane (Amersham International plc, Buckinghamshire, ENGLAND). The membrane was blocked in TBS (0.15 M NaCl/10 mM Tris/HCl, pH7.4) containing 5% (v/v) skimmed milk (Blotto), then incubated over night with primary antibodies at RT (diluted 1/2000 in blotto). After being washed six times in TBST [TBS containing 0.05% (v/v) Tween 20], the membrane was incubated for 2 h at room temperature with secondary antibody (diluted 1/5000 in blotto). Immunoreactive bands were detected with ECL western blotting detection reagents (Amersham Pharmacia Biotech, Buckingammshire England) and developed on film (Fuji super RX, Dusseldorf, Germany). Primary antibodies for Sp1 and MnSOD were from BD Transduction Laboratories (Becton Dickenson and Co., San Jose, Calif. USA) and for UCP2 from Alpha Diagnostics LTD (Warszaw, Poland). Secondary antibodies were from Jackson ImmunoResearch (Jackson Labs, Bar Harbor, Maine, USA).
Reverse transcriptase-PCR (RTPCR): Total RNA was prepared and isolated by the Tri-Reagent method according to the manufacturer's protocol (Sigma, St. Louis Mo., USA). Total RNA (1 μg) was converted into cDNA using Reverse-iT first strand synthesis kit (Abgene, UK). Amplification of MnSOD and UCP2 sequences was performed by incubating 10 ng equivalents of DNA with the following oligonucleotide primers:
Left (sense), 5′-[…]-3′ (SEQ ID NO:7) corresponding to nucleotides 372 to 392 of mouse mRNA (GenBank Accession No. NM 011671).
Right (antisense) 5′[…]-3′ (SEQ ID NO: 8) corresponding to nucleotides 826 to 846 of mouse mRNA (GenBank Accession No. NM 011671). The expected PCR product was 474 bp. Actual PCR product was approximately 474 bp, measured on 1.25% agarose gel in TAE containing ethidium bromide.
as §3

Compound: C=C(C)[C@H]1Cc2c(ccc3c2O[C@@H]2COc4cc(OC)c(OC)cc4[C@@H]2C3=O)O1 [rotenone]
- respiration (O2 consumption) of colon tissue [1]: strongly inhibited; also recorded: significantly reduced

Compound: N[C@@H](C[SeH])C(=O)O [selenocysteine]
- dietary supplementation at which toxicity was observed [2]: greater than 10 mg selenium per kg body weight per day

Compound: C[Se]CC[C@H](N)C(=O)O [selenomethionine]
- anti-cancer treatment effect (AOM-induced colon cancer): ineffective

Compound: O=[Se](O)O [sodium selenite]
- increase in colon tissue selenium levels compared with healthy rats ([3]; colitis-induced rats, 24 h after TNBS, 16 ppm in water, three weeks (FIG. 1 C and D)): greater
- colon tissue selenium vs untreated controls ([3]; healthy and colitis rats (columns B and D vs A and C), 16 ppm in drinking water, three weeks): enhanced levels
- lowest concentration effective in reducing MnSOD expression, activated macrophages (MnSOD): 1 µM
- concentration of maximum stimulation of GPx activity [4]: 0.5 µM
- protection against TNBS-induced inflammation (MPO activity) [5]: > 80%
- adverse effects of long term supplementation [6]: no observable adverse effects
- cytotoxicity at 10 μM [7]: ≤ 60%
- lowest concentration giving a significant decrease in UCP2 transcripts (UCP2; 24 and 72 hours (FIG. 10A)): 5 µM
- reduction in detectable UCP2 protein (UCP2; 24 hours at 30 μM (FIG. 10B)): greater than 50%
- lowest concentration effective in reducing UCP2 expression, activated macrophages (UCP2; LPS + INFγ activated, 24 hours, range 0.5-5 μM (FIG. 11)): 1 µM
